Experimental data: patent publication US20110144303A1, “Biologically Active Peptidomimetic Macrocycles” (AILERON Therapeutics, Inc., priority 2008, published 2011)

How the values were obtained:
Bcl-xL = molecular target: T1, Bcl-xL (Homo sapiens, UniProt Q07817); assay: Protein-ligand binding experiment for Bcl-xL (SEC-LC-MS affinity selection); conditions: 1 μM SP-4 and 5 μM Bcl-xL in PBS, 2.5% DMSO, 60 min at room temperature
T1 construct: GST
Description: Protein-ligand binding experiments for Bcl-xL. Simple protein-ligand binding experiments were conducted using the following representative procedure outlined for a simple system-wide control experiment using 1 μM SP-4 and 5 μM Bcl-xL. A 1 μL DMSO aliquot of a 40 μM stock solution of SP-4 is dissolved in 19 μL of PBS (Phosphate-buffered saline: 50 mM, pH 7.5 Phosphate buffer containing 150 mM NaCl). The resulting solution is mixed by repeated pipetting and clarified by centrifugation at 10 000 g for 10 min. To a 4 μL aliquot of the resulting supernatant is added 4 μL of 10 μM BCL-xL in PBS. Each 8.0 μL experimental sample thus contains 40 pmol (1.5 μg) of protein at 5.0 μM concentration in PBS plus 1 μM SP-4 and 2.5% DMSO. Duplicate samples thus prepared for each concentration point are incubated for 60 min at room temperature, and then chilled to 4° C. prior to size-exclusion chromatography-LC-MS analysis of 5.0 μL injections. Samples containing a target protein, protein-ligand complexes, and unbound compounds are injected onto an SEC column, where the complexes are separated from non-binding component by a rapid SEC step. The SEC column eluate is monitored using UV detectors to confirm that the early-eluting protein fraction, which elutes in the void volume of the SEC column, is well resolved from unbound components that are retained on the column. […]

[1] = Pharmacokinetics of SP-4 and SP-54 in Rats following IV dose
From the text: Table printed on a drawing sheet, Figure 19
Title: Pharmacokinetics of SP-4 and SP-54 in Rats following IV dose
The patent's description of the figure: FIG. 19 illustrates the pharmacokinetic properties of SP-4 and SP-54 peptidomimetic macrocycles in rats.
First reader's note: Pharmacokinetic parameters in rats after IV dosing; the table is printed under a concentration-time plot that is not copied.

GST-Bcl-2 = assay: Kd
Description: Table printed on a drawing sheet, Figure 5
The patent's description of the figure: FIG. 5 depicts binding properties to GST-Bcl-2 of SP-4 and SP-54 peptidomimetic macrocycles.
First copying reader's note: Kd values belong to the plot beside the table, titled 'Saturation Binding Curves vs. 2 µM Receptor, 1x PBS + 5 mM CHAPS, 2.5% DMSO', with GST-Bcl-2 as the receptor.
Where the first naming reader finds the target: description_of_the_figure: FIG. 5 depicts binding properties to GST-Bcl-2 of SP-4 and SP-54 peptidomimetic macrocycles.

GST-Mcl-1 = assay: Kd
Description: Table printed on a drawing sheet, Figure 4
The patent's description of the figure: FIG. 4 depicts binding properties to GST-Mcl-1 of SP-4 and SP-54 peptidomimetic macrocycles.
First copying reader's note: Kd values belong to the adjacent saturation binding plot (stapled peptides + GST-Mcl-1, 2 µM receptor, 1x PBS + 5 mM CHAPS, 2.5% DMSO).
Where the first naming reader finds the target: description_of_the_figure: FIG. 4 depicts binding properties to GST-Mcl-1 of SP-4 and SP-54 peptidomimetic macrocycles.

T1 sequence (Q07817 whole entry, species assumed): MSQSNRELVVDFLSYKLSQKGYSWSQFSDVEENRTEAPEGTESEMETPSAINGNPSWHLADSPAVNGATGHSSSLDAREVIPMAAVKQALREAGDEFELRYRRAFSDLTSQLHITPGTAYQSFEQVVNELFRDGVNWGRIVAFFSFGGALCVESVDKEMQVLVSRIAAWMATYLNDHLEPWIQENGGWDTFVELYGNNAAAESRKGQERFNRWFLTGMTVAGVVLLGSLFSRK

SMILES: CC[C@H](C)[C@H](NC(C)=O)C(=O)N[C@@H](Cc1c[nH]c2ccccc12)C(=O)N[C@H](C(=O)N[C@@H](C)C(=O)N[C@@H](CCC(N)=O)C(=O)N[C@@H](CCC(=O)O)C(=O)N[C@@H](CC(C)C)C(=O)N[C@@H](CCCNC(=N)N)C(=O)N[C@@]1(C)CCCC=CCCC[C@@](C)(C(=O)N[C@@H](Cc2ccccc2)C(=O)N[C@@H](CC(N)=O)C(=O)N[C@@H](C)C(=O)N[C@@H](Cc2ccc(O)cc2)C(=O)N[C@@H](Cc2ccc(O)cc2)C(=O)N[C@@H](C)C(=O)N[C@@H](CCCNC(=N)N)C(=O)N[C@@H](CCCNC(=N)N)C(N)=O)NC(=O)[C@H](CC(=O)O)NC(=O)CNC(=O)[C@H]([C@@H](C)CC)NC1=O)[C@@H](C)CC [SP-4, Ac-IWIAQELR$IGD$FNAYYARR-NH2]
- detection of the protein-ligand complex by ESI-MS after size-exclusion chromatography (Bcl-xL): detection of the protein-ligand complex
- AUC,inf [1]: 38000 ng·h/mL
- Cl [1]: 1.37 mL/min/kg
- Vss [1]: 0.263 L/kg
- Vz [1]: 0.728 L/kg
- Cmax ([1]; rat, in vivo, iv): 18100 ng/mL
- MRT ([1]; rat, in vivo, iv): 3.1 h
- Kd (GST-Bcl-2): 26 nM
- Kd (GST-Mcl-1): 7 nM
